ChEMBL document CHEMBL1132824, “Highly specific inhibitory effect of three-component hybrid liposomes including sugar surfactants on the growth of glioma cells” (Bioorg Med Chem Lett, 2000)

Legend:
U-251 [1] = assay: Compound alone was evaluated for inhibitory effect on growth of glioma (U251) cells; Ineffective; type: functional, cell-based; conditions: Homo sapiens
U-251 [2] = assay: Compound along with Tween 20 and SucCn was evaluated for inhibitory effect on growth of glioma (U251) cells; Effective; type: functional, cell-based; conditions: Homo sapiens

Compound | Activity (U-251 [1]) | Activity (U-251 [2])
CCCCCCCCCCCC(=O)OC[C@@H]1O[C@H](O[C@]2(CO)O[C@H](CO)[C@@H](O)[C@@H]2O)[C@@H](O)[C@@H](O)[C@@H]1O | Ineffective | Effective
CCCCCCCCCC(=O)OC[C@@H]1OC(O[C@]2(CO)OC(CO)C(O)[C@@H]2O)[C@@H](O)[C@H](O)[C@H]1O (single isomer, unassigned) | Ineffective | Effective
CCCCCCCCCCCCCC(=O)OCC(COP(=O)([O-])OCC[N+](C)(C)C)OC(=O)CCCCCCCCCCCCC (stereo unspecified) | Ineffective | Effective
